Earlier results, collected in article PMC9683570.
Counter-ions that a name gives are not always drawn. Like-named read-outs stand apart in the source and are kept apart here. Blank lines part the entries; values can stand above or below the compound they belong to.

Tests used:
[1] = system: NaV1.5 channels; conditions: similar concentrations as tested on CaV1.2
[2] = system: hCaV1.2α, β2, α2δ1 subunits; parameters: method as in PMID 30151907; conditions: IonWorks Barracuda, ambient temperature, […] Ca2+, current at 0 mV step, 10 s interval, rundown adjusted; read-out: IC50 (Li et al. 2018)
[3] = parameters: method as in DrugBank; conditions: predicted, based on ChemAxon; ref DrugBank
[4] = system: Ca2+ current (L-type); conditions: peak current inhibited less potently than late current at end of step depolarization
[5] = system: L-type Ca2+ channels; parameters: method as in PMID 17909749; conditions: from 22°C to 37°C
[6] = system: hCaV1.2, β2, α2δ; conditions: ambient, 1.8 Ca2+
[7] = system: CaVAb (voltage-dependent Ca2+-selective channel); conditions: 13 Ba2+
[8] = system: hCav1.2; parameters: method as in PMID 23651875; conditions: RT
[9] = system: L-type Ca2+ current; parameters: method as in PMID 19367686; conditions: 20–25 °C, 10 Ca2+
[10] = system: CaV1.2, α2δ, β2a; conditions: ~25 °C
[11] = system: CaV1.2, α2δ, β2a along with Kir2.3; conditions: 30 Ba2+
[12] = system: CaV1.2, α2δ, β2a; conditions: 22–25 °C, 20 Ba2+
[13] = system: CaV1.2, α2δ, β1b; conditions: read-out: IC50 (± SE); RT, 10 Ba2+
[14] = system: L-type Ca2+ current; conditions: RT (22–25 °C), 2 Ca2+

Structure (SMILES): O=C1CC[C@@]2(O)[C@H]3Cc4ccc(O)c5c4[C@@]2(CCN3CC2CC2)[C@H]1O5 [Naltrexone, naltrexone hydrochloride]
nH on the peak and the late current [1]: ≥ 0.8

Log P [3]: 4.54
Structure (SMILES): CN(C)CCCN1c2ccccc2Sc2ccc(Cl)cc21 [Chlorpromazine]
IC50 [2]: 6.35 µM

Log P [3]: 5.49
Structure (SMILES): CC(C)COCC(CN(Cc1ccccc1)c1ccccc1)N1CCCC1 (stereo not drawn) [Bepridil]
IC50 [2]: 638 µM

difference in the IC50s, peak vs late Ca2+ current [4]: 13.1 X
Structure (SMILES): COCCOC(=O)C1=C(C)NC(C)=C(C(=O)OC(C)C)C1c1cccc([N+](=O)[O-])c1 (stereo not drawn) [nimodipine]

Structure (SMILES): Cc1c(-c2ccccc2)oc2c(C(=O)OCCN3CCCCC3)cccc2c1=O [flavoxate]
increase in block potency on raising the recording temperature [5]: 2.2 X

Structure (SMILES): COc1ccc(CCN(C)CCCC(C#N)(c2ccc(OC)c(OC)c2)C(C)C)cc1OC (racemic) [Verapamil, (±)-verapamil hydrochloride]
IC50 [9]: 0.79 µM

Structure (SMILES): COC(=O)C1=C(C)NC(C)=C(C(=O)OC)C1c1ccccc1[N+](=O)[O-] [nifedipine]
increase in block potency on raising the recording temperature [5]: 7 X

Log P [3]: 2.35
Structure (SMILES): Cc1nccn1CC1CCc2c(c3ccccc3n2C)C1=O (stereo not drawn) [Ondansetron]
IC50 [2]: 9310 µM

Structure (SMILES): COc1ccc([C@@H]2Sc3ccccc3N(CCN(C)C)C(=O)[C@@H]2OC(C)=O)cc1 [Diltiazem, diltiazem hydrochloride]
IC50 [6]: 0.76 ± 0.08 µM
nH (± SE) [6]: 1.14 ± 0.15
IC50 ([10]; 5 mM Ba2+, read-out: IC50 (± SE) (Ba2+) (converted)): 109 µM
IC50 ([10]; 1.8 Ca2+, read-out: IC50 (± SE) (Ca2+)): 250 ± 16 µM
IC50 ([11]; read-out: IC50 (automated), PatchXpress 7000A, 22–26 °C): 36 µM
IC50 ([11]; read-out: IC50 (manual), manual, 20–25 °C): 44 µM
IC50 ([7]; 20 ms single pulse from -120 mV, read-out: IC50, resting state block): 41 µM
IC50 ([7]; 20 pulses at 1 Hz from -120 mV, read-out: IC50, use-dependent block): 10.4 µM
IC50 [12]: 85 ± 9 µM
IC50 [2]: 31.6 µM
IC50 [13]: 65 ± 13 µM
IC50 [9]: 30 µM
nH [14]: 0.77
IC50 ([14]; read-out: IC50 (± SE)): 0.63 ± 0.05 µM

Log P [3]: 6.48
Structure (SMILES): CC(C)(C)c1ccc(C(O)CCCN2CCC(C(O)(c3ccccc3)c3ccccc3)CC2)cc1 (stereo not drawn) [Terfenadine]

Structure (SMILES): C=CCN1CC[C@]23c4c5ccc(O)c4O[C@H]2C(=O)CC[C@@]3(O)[C@H]1C5 [Naloxone, Naloxone hydrochloride]
nH on the peak and the late current [1]: ≥ 0.8
